Here are results for eight molecules from patent US20230416299A1, “COMPOUND AND METHOD FOR THE TREATMENT AND DIAGNOSIS OF NEURODEGENERATIVE CONDITIONS” (Swansea University, priority 2013, published 2023).

The target in the test is T1, Lxrα (Homo sapiens, UniProt Q13133).
T1 construct: expressed in transfected cells; host or cells: SN4741 mouse neuronal cell line
T1 sequence (Q13133 1-447): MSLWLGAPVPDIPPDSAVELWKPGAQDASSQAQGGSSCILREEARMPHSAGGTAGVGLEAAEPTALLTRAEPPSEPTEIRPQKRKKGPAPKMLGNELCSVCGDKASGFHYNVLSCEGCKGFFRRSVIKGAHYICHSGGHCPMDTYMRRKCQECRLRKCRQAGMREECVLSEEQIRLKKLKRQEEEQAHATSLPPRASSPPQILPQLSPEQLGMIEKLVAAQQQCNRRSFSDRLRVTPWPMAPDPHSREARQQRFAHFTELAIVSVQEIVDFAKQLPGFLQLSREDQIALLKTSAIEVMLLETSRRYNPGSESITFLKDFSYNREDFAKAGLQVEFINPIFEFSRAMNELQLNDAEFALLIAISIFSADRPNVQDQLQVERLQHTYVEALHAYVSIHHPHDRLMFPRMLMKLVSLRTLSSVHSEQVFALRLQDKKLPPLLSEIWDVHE
Nature of the test: Lxr-responsive luciferase reporter assay (Lxre + Lxrα) in SN4741 neural cells. Type of test: cell-based, mouse. Conditions: 10 μM, 24 h. The text has this: Luciferase Reporter Assay.
For orientation: A reporter such as luciferase makes a cellular process visible.
`CC(C)CCC[C@@H](C)[C@H]1CC[C@H]2[C@@H]3CC[C@H]4CC(=O)CC[C@]4(C)[C@H]3CC[C@]12C` [5α-cholestan-3-one]: the “Lxrα activation, luciferase activity” value is on record as “None of these compounds showed significant activity”.
For `CC(C)CCC[C@@H](C)[C@H]1CC[C@H]2[C@@H]3CC[C@H]4C[C@@H](O)CC[C@]4(C)[C@H]3CC[C@]12C` [5α-cholestan-3β-ol], the “Lxrα activation, luciferase activity” value is “None of these compounds showed significant activity”.
`CC(C)CCC[C@@H](C)[C@H]1CC[C@H]2[C@@H]3[C@H](O)CC4=CC(=O)CC[C@]4(C)[C@H]3C[C@H](O)[C@]12C` [7α,12α-diHCO, 7α,12α-Dihydroxycholest-4-en-3-one]: the “Lxrα activation, luciferase activity” value is given as “None of these compounds showed significant activity”.
In the case of `CC(C)CCC[C@@H](C)[C@H]1CC[C@H]2[C@@H]3[C@H](O)C=C4C[C@@H](O)CC[C@]4(C)[C@H]3CC[C@]12C` [7α-HC, Cholest-5-ene-3β,7α-diol] it was “None of these compounds showed significant activity”.
In the case of `CC(C)CCC[C@@H](C)[C@H]1CC[C@H]2[C@@H]3[C@H](O)CC4=CC(=O)CC[C@]4(C)[C@H]3CC[C@]12C` [7α-HCO, 7α-Hydroxycholest-4-en-3-one] it was “None of these compounds showed significant activity”; in that of `CC(C)CCC[C@@H](C)[C@H]1CC[C@H]2[C@@H]3[C@@H](O)C=C4C[C@@H](O)CC[C@]4(C)[C@H]3CC[C@]12C` [7β-HC, Cholest-5-ene-3β,7β-diol], “None of these compounds showed significant activity”; in that of `CC(C)CCC[C@@H](C)[C@H]1CC[C@H]2[C@@H]3CCC4=CC(=O)CC[C@]4(C)[C@H]3CC[C@]12C` [cholest-4-en-3-one], “None of these compounds showed significant activity”.
In the case of `CC(C)CCC[C@@H](C)[C@H]1CC[C@H]2[C@@H]3C=CC4=CC(=O)CC[C@]4(C)[C@H]3CC[C@]12C` [cholesta-4,6-dien-3-one] it was “None of these compounds showed significant activity”.
